This experiment has as its target P-glycoprotein (ABCB1) (Homo sapiens, UniProt P08183). Put plainly: inhibition of P-gp-mediated adriamycin efflux in MCF-7/ADR cells. Format: cell-based.

Chain of P-glycoprotein (ABCB1) (P08183 whole entry): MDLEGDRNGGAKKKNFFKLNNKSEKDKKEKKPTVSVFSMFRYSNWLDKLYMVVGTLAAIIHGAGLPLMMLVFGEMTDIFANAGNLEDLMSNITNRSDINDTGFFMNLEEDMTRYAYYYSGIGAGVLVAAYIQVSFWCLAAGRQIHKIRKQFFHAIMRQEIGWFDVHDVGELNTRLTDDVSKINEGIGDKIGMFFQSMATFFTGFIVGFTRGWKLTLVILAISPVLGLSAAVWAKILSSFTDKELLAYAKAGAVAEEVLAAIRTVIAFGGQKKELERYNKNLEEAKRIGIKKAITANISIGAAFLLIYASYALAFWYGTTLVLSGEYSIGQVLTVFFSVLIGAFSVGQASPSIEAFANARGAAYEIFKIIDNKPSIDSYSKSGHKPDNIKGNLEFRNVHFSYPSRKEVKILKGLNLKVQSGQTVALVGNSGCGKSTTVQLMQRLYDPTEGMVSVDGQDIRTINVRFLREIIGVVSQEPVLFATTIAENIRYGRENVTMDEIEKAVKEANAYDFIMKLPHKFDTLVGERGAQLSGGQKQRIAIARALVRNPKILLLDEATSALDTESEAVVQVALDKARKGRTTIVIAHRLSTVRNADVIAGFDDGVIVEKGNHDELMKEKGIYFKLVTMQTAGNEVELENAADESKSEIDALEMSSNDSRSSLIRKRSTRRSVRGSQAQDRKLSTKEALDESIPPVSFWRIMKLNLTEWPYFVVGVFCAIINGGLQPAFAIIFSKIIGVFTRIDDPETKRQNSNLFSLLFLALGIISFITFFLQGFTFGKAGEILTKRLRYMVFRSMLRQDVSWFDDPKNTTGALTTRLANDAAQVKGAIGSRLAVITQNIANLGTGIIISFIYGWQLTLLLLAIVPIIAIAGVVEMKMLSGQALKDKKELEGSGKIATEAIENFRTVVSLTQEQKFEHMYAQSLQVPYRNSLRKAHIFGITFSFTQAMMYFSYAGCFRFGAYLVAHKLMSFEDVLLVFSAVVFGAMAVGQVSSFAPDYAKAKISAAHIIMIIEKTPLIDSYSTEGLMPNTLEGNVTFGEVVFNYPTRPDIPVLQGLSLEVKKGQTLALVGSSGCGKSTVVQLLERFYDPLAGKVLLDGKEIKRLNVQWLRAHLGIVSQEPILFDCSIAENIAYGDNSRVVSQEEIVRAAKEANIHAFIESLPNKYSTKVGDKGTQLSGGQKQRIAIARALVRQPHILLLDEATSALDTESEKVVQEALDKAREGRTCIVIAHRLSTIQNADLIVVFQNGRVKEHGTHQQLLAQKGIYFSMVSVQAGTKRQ

Molecule `CC(=O)O[C@@H]1[C@@H](C)[C@H]2[C@@H]([C@H]3[C@@H](OC(=O)c4ccccc4)[C@H](C)C[C@@]31OC(C)=O)[C@]1(C)C=CC(=O)C(C)(C)[C@H]21` [compound 1, Heliosterpenoid A] registered a half-maximal inhibitory concentration (IC50) of 1.28 µM.

`CC(=O)O[C@H]1[C@@H](C)[C@H]2[C@@H]([C@H]3[C@@H](OC(=O)c4ccccc4)[C@@H](C)C[C@@]31O)[C@]1(C)C(=O)C=CC(C)(C)[C@H]21` [compound 2, Heliosterpenoid B] came in with an IC50 of 1.02 µM.

The IC50 is the concentration that inhibits the measured activity by half. The low end stands for greater potency in that assay, the high end for weaker potency in that assay.
